# Reference: ChEMBL document CHEMBL6120956, “Discovery of a Potent, Orally Active, and Long-Lasting P2X7 Receptor Antagonist as a Preclinical Candidate for Delaying the Progression of Chronic Kidney Disease” (J Med Chem, 2024)
# Legend:
# [1] = Metabolic stability in human liver microsomes assessed as half life; type: ADME, Microsome
# CYP2E1 = CYP2E1 (Homo sapiens, UniProt P05181); assay: Inhibition of CYP2E1 in human liver microsomes assessed as compound remaining at 1 uM measured after 2 hrs incubation by LC-MS/MS analysis; type: ADME, Microsome; details: read-out: Activity
# CYP2E1, sequence (P05181 whole entry): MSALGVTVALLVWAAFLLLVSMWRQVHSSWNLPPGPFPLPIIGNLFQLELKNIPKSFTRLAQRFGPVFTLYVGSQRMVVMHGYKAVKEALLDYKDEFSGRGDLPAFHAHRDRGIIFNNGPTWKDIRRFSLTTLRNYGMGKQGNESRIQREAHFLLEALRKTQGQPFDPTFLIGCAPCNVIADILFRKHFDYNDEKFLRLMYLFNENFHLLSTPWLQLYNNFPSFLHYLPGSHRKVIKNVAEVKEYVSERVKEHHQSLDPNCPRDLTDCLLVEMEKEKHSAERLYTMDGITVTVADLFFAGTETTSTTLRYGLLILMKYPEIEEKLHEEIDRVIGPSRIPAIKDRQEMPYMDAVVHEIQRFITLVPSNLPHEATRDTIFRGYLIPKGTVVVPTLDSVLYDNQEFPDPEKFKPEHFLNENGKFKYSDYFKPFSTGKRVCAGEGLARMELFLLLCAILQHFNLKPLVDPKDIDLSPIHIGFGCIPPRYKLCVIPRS
# CYP2D6 = CYP2D6 (Homo sapiens, UniProt P10635); assay: Inhibition of CYP2D6 in human liver microsomes assessed as compound remaining at 1 uM measured after 2 hrs incubation by LC-MS/MS analysis; type: ADME, Microsome; details: read-out: Activity
# CYP2D6, sequence (P10635 whole entry): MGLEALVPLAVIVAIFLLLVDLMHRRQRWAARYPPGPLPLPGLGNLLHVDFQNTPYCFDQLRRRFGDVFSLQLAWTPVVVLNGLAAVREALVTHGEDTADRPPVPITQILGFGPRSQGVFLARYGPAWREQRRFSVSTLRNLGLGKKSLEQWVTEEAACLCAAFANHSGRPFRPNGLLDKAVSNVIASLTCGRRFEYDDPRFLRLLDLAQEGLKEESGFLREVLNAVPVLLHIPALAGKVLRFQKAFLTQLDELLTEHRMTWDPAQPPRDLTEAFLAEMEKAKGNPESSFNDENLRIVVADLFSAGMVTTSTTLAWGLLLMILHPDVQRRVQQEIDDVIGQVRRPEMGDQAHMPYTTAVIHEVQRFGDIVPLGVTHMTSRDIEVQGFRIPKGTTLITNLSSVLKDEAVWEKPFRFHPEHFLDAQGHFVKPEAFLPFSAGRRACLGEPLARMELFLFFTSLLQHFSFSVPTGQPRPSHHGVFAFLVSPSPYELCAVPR
# [2] = AUC (0 to t) in male BALB/c mouse at 10 mg/kg, po single administration measured upto 72 hrs by LC-MS/MS analysis; type: ADME, organism-based; details: in vivo
# [3] = Metabolic stability in mouse liver microsomes assessed as half life; type: ADME, Microsome
# [4] = Cmax in male BALB/c mouse at 10 mg/kg, po single administration measured upto 72 hrs by LC-MS/MS analysis; type: ADME, organism-based; details: in vivo
# CYP3A4 = CYP3A4 (Homo sapiens, UniProt P08684); assay: Inhibition of CYP3A4 in human liver microsomes assessed as compound remaining at 1 uM measured after 2 hrs incubation by LC-MS/MS analysis; type: ADME, Microsome; details: read-out: Activity
# CYP3A4, sequence (P08684 whole entry): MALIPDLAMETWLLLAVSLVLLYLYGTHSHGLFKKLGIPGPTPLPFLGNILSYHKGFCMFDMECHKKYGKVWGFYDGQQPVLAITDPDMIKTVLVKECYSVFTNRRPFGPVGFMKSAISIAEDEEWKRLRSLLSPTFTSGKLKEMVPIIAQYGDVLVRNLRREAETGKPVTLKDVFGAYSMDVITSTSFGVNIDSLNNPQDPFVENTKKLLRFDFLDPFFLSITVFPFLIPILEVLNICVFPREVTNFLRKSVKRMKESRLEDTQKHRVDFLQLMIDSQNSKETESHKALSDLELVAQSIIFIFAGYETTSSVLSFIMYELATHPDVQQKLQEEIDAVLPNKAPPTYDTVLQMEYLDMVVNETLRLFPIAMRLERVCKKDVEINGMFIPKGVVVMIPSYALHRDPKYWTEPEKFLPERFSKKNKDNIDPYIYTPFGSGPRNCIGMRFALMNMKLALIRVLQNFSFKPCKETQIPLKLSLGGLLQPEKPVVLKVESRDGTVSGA
# P2X purinoceptor 7 = target: T1, P2X purinoceptor 7 (Mus musculus, UniProt Q9Z1M0); assay: Antagonist activity against mouse P2X7 receptor expressed in ATP-stimulated HEK293 cells assessed as influx of PI by fluorescence dye uptake assay relative to control; type: cell-based
# T1 sequence (Q9Z1M0 whole entry): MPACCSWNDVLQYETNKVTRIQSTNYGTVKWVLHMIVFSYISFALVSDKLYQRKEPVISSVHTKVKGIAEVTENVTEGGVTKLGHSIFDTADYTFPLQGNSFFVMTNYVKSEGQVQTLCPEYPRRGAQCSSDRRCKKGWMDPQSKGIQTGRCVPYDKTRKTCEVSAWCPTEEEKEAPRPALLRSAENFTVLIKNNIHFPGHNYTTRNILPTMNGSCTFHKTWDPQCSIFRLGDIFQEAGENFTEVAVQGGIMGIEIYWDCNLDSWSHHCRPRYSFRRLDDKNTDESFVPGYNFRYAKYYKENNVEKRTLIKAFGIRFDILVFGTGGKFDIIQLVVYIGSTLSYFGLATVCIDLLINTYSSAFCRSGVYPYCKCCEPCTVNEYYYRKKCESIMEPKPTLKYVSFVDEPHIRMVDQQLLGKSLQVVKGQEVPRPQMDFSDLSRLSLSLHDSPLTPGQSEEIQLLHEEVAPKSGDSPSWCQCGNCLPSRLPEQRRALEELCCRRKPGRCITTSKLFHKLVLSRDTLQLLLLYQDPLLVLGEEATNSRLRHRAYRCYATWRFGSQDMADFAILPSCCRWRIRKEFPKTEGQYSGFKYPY
# [5] = Clearance in male BALB/c mouse at 10 mg/kg, po single administration measured upto 72 hrs by LC-MS/MS analysis; type: ADME, organism-based; details: in vivo
# CYP2A6 = target: T2, CYP2A6 (Homo sapiens, UniProt P11509); assay: Inhibition of CYP2A6 in human liver microsomes assessed as compound remaining at 1 uM measured after 2 hrs incubation by LC-MS/MS analysis; type: ADME, Microsome; details: read-out: Activity
# T2 sequence (P11509 whole entry): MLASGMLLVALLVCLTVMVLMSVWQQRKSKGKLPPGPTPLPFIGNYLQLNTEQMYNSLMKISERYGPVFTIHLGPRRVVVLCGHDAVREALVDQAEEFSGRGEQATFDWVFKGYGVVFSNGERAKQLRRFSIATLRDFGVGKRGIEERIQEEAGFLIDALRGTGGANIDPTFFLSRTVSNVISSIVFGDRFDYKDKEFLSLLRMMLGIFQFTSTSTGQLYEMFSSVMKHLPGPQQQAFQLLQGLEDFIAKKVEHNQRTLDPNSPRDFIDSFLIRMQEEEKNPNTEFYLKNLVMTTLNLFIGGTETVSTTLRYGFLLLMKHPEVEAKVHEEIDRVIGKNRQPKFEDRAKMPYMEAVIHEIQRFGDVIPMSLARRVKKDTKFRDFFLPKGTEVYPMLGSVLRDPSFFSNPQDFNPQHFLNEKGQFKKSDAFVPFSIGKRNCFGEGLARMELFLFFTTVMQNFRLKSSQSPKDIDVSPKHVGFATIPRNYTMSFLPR
# [6] = Plasma protein binding in plasma (unknown origin) at 10 uM measured after 6 hrs incubation by LC-MS/MS analysis; type: ADME, cell-free; details: read-out: PPB (converted)
# CYP1A2 = target: T3, CYP1A2 (Homo sapiens, UniProt P05177); assay: Inhibition of CYP1A2 in human liver microsomes assessed as compound remaining at 1 uM measured after 2 hrs incubation by LC-MS/MS analysis; type: ADME, Microsome; details: read-out: Activity
# T3 sequence (P05177 whole entry): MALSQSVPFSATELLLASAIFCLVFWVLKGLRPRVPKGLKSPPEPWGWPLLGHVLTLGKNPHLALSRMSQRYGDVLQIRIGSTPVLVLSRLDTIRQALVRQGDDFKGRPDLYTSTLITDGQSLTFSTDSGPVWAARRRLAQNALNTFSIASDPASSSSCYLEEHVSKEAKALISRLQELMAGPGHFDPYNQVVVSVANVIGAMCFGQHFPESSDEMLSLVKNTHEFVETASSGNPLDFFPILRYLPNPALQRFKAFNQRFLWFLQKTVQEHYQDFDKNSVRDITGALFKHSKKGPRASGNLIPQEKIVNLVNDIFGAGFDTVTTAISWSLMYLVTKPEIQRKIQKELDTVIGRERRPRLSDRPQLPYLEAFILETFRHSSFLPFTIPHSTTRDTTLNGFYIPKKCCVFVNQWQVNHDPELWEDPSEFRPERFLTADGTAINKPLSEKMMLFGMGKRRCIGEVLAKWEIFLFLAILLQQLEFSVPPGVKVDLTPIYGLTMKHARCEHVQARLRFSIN
# CYP2C9 = CYP2C9 (Homo sapiens, UniProt P11712); assay: Inhibition of CYP2C9 in human liver microsomes assessed as compound remaining at 1 uM measured after 2 hrs incubation by LC-MS/MS analysis; type: ADME, Microsome; details: read-out: Activity
# CYP2C9, sequence (P11712 whole entry): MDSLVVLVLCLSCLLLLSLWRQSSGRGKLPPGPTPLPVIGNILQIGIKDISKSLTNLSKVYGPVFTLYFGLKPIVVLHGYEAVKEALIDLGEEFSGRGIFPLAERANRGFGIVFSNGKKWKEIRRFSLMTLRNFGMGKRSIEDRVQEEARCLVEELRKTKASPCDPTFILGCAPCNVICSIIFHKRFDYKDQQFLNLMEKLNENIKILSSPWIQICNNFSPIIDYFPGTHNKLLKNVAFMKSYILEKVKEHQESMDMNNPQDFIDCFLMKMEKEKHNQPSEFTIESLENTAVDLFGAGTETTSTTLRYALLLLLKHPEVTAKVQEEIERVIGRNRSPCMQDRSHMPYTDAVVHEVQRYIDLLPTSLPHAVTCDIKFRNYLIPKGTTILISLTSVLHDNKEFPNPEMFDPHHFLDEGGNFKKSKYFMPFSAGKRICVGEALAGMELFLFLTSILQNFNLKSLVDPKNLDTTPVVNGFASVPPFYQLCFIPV
# [7] = Metabolic stability in mouse liver microsomes assessed as clearance; type: ADME, Microsome; details: read-out: CLH
# [8] = Metabolic stability in human liver microsomes assessed as clearance; type: ADME, Microsome; details: read-out: CLH
# [9] = Tmax in male BALB/c mouse at 10 mg/kg, po single administration measured upto 72 hrs by LC-MS/MS analysis; type: ADME, organism-based; details: in vivo
# [10] = Stability in Balb/c mouse plasma measured upto 8 hrs; type: ADME, cell-free
# [11] = Half life in male BALB/c mouse at 10 mg/kg, po single administration measured upto 72 hrs by LC-MS/MS analysis; type: ADME, organism-based; details: in vivo
# CYP2C19 = CYP2C19 (Homo sapiens, UniProt P33261); assay: Inhibition of CYP2C19 in human liver microsomes assessed as compound remaining at 1 uM measured after 2 hrs incubation by LC-MS/MS analysis; type: ADME, Microsome; details: read-out: Activity
# CYP2C19, sequence (P33261 whole entry): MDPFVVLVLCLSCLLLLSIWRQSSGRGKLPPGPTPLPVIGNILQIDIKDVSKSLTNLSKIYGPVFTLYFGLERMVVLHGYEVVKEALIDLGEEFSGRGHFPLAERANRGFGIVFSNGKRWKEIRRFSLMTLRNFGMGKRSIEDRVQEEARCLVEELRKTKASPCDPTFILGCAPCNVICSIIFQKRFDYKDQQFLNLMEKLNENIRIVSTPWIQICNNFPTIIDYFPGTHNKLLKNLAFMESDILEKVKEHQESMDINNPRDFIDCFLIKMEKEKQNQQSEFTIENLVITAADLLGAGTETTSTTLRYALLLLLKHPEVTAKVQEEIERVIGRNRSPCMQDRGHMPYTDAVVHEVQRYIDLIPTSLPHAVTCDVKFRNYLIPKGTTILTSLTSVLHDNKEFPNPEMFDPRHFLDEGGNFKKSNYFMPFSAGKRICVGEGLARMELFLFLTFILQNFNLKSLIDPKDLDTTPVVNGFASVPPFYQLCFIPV
# HEK293 [12] = assay: Cytotoxicity against HEK293 cells expressing mouse P2X7 receptor assessed as cell viability upto 2 uM measured after 24 hrs incubation by CCK8 assay; type: toxicity, cell-based; details: human, hek293, 24 h
# HEK293 [13] = assay: Cytotoxicity against HEK293 cells expressing human P2X7 receptor assessed as cell viability upto 2 uM measured after 24 hrs incubation by CCK8 assay; type: toxicity, cell-based; details: hek293, 24 h
# [14] = target: Voltage-gated inwardly rectifying potassium channel KCNH2 (Homo sapiens, UniProt Q12809); assay: Inhibition of hERG; type: toxicity
# Voltage-gated inwardly rectifying potassium channel KCNH2, sequence (Q12809 whole entry): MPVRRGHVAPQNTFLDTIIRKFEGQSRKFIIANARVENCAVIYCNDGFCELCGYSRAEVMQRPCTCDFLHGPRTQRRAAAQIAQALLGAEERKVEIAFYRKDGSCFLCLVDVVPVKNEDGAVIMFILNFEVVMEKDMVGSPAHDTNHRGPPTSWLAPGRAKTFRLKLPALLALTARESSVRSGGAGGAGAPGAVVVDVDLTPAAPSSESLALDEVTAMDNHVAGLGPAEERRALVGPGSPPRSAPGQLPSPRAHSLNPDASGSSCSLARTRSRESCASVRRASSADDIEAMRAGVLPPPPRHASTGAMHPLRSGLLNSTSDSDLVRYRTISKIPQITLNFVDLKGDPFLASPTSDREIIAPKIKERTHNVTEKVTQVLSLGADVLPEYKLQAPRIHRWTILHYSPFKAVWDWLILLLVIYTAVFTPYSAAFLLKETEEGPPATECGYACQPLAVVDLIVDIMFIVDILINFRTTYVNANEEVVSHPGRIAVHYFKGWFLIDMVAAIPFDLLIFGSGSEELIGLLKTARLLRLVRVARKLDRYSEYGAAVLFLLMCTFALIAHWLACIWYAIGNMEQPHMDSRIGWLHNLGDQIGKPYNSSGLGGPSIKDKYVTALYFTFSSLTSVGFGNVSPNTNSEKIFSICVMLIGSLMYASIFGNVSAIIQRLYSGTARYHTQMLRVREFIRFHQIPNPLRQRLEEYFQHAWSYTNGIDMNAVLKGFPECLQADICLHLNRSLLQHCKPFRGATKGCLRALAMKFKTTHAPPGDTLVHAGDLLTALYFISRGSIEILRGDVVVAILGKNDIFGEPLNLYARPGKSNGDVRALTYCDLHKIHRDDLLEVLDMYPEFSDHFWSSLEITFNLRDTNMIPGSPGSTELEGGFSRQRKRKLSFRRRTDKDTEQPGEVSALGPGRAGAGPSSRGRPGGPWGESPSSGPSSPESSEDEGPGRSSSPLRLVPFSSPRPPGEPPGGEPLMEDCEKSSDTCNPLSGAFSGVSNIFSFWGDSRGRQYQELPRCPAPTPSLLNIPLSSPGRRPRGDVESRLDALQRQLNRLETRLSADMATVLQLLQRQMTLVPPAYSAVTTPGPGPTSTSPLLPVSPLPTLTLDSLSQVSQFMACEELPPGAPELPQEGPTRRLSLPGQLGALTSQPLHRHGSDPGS
# [15] = Toxicity in female C57BL/6 mouse assessed as decrease in body weight at 2 g/Kg measured for 2 to 6 days; details: in vivo, 2000 mg/kg, time 2-6 day
# [16] = Toxicity in C57BL/6 mouse assessed as change in body weight at 2 g/Kg measured for 14 days; details: in vivo, 2000 mg/kg, 336 h, time 14 day
SMILES,half-life [1],"remaining at 2 h, 1 µM (CYP2E1)","remaining at 2 h, 1 µM (CYP2D6)",AUC(0-t) at 72 h [2],half-life [3],Cmax [4],"remaining at 2 h, 1 µM (CYP3A4)",IC50 (P2X purinoceptor 7),CL/F [5],"remaining at 2 h, 1 µM (CYP2A6)","fraction unbound at 6 h, 10 µM [6]","remaining at 2 h, 1 µM (CYP1A2)","remaining at 2 h, 1 µM (CYP2C9)",CLint scaled [7],CLint scaled [8],Tmax [9],Stability [10],half-life [11],"remaining at 2 h, 1 µM (CYP2C19)",other results
C[C@@H](NC(=O)c1cnc(-c2ccc(S(C)(=O)=O)cc2)s1)c1cn(-c2cc(C(F)(F)F)ccn2)nn1,> 120 min,84.2%,84.2%,86.5 µg·h/mL,> 120 min,6900 ng/mL,84.2%,54.7 nM,2.17 mL/min/kg,84.2%,0.0213,84.2%,84.2%,< 12 mL/min/kg,< 12 mL/min/kg,2.33 h,Stable,283 min,84.2%,–
C[C@@H](NC(=O)c1csc(-c2ccc(S(C)(=O)=O)cc2)n1)c1cn(-c2cc(C(F)(F)F)ccn2)nn1,> 120 min,–,–,103 µg·h/mL,> 120 min,6610 ng/mL,–,168 nM,1.67 mL/min/kg,–,–,–,–,< 12 mL/min/kg,< 12 mL/min/kg,3 h,–,396 min,–,Activity (HEK293 [12]): Non-toxic; Activity (HEK293 [13]): Non-toxic
C[C@H](NC(=O)c1cnc(-c2ccc(S(C)(=O)=O)cc2)s1)c1cn(-c2cc(C(F)(F)F)ccn2)nn1,> 120 min,100%,100%,1160 µg·h/mL,> 120 min,19800 ng/mL,100%,25.3 nM,–,100%,0.003,100%,100%,< 12 mL/min/kg,< 12 mL/min/kg,24 h,Stable,9700 min,100%,IC50 [14]: > 30 µM; Activity [15]: Non-toxic; Activity [16]: Non-toxic
